Assay results taken from patent publication US20210254101A1, “METHODS FOR TREATING SPINAL CORD INJURY” (THE CHILDREN'S MEDICAL CENTER CORPORATION, priority 2018, published 2021).

Key:
[1] = tested on: mice with staggered lesions; experiment: Basso Mouse Scale (BMS) open field locomotion after staggered T7/T10 lateral hemisections; format: in vivo
Experimental: A staggered lesion paradigm was optimized in which two lateral hemisections were performed at the thoracic (T) 7 and T10 levels simultaneously (FIGS. 1A and 1B), similar to the model previously described (Courtine 2008; van den Brand, 2012). The T10 lesion is a lateral hemisection that ends at the spinal cord midline, while the T7 lesion, contralateral to the T10 lesion, extends slightly beyond the midline (FIG. 1A). With this double hemisection procedure, all descending axons passing T10 are severed, leaving only those crossing the midline between T7 and T10 intact (FIG. 1C). Indeed, by immunohistochemistry with anti-5-HT antibodies, which label serotonergic axons, descending serotonergic axons could be detected in the spinal cord segments between the lesions, but not in the lumbar spinal cord (FIG. 1C). Thus, a relay zone remains between and around the lesions (T7 and T10) where descending axons terminate, and where some propriospinal neurons maintain their connections with lumbar spinal neurons (see herein below).
This double hemisection SCI model was used to seek small molecule compounds that could reactivate the spared, but dormant, spinal connections by monitoring hindlimb motor performance during over-ground locomotion. To this end, daily compound treatment was started 1 week after injury and then monitored the BMS scores approximately 24 hours after the previous day's compound treatment on a weekly basis (FIG. 1D). Behavioral outcomes observed at these time points likely reflect sustained effects of the treatment, which are more clinically relevant.
Surgical Procedures. The procedure of T7 and T10 double lateral hemisection was similar to that described elsewhere (Courtine et al., 2008; van den Brand et al., 2012). Briefly, a midline incision was made over the thoracic vertebrae, followed by a T7-10 laminectomy. For the T7 right side over-hemisection, a scalpel and micro-scissors were carefully used to interrupt the bilateral dorsal column at T7, and ensured no sparing of ventral pathways on the contralateral side (FIG. 1A). For the T10 left hemisection, a scalpel and micro-scissors were carefully used to interrupt only the left side of the spinal cord until the midline. The muscle layers were then sutured, and the skin was secured with wound clips. All animals received post hoc histological analysis, and those with spared 5HT axons at the lumbar spinal cord (L2-5) were excluded for behavioral analysis (FIG. 7).
Behavioral Experiments. Motor function was evaluated with a locomotor open field rating scale on the Basso Mouse Scale (BMS). For transient pharmacological treatments, ten to fifteen minutes (van den Brand et al., 2012) prior to behavioral tests (grounding walking, all of which were performed individually), mice received systematic administration (i.p.) of the neural modulators listed above. It is important to note that with a single intraperitoneal injection, plasma CNO levels peak at 15 min and become very low by 2 h after injection (Guettier et al., 2009). For chronic pharmacological treatments, 24 hours prior to behavioral tests, mice received systematic administration of the compounds listed above. All behavioral tests were completed within 1-3 hours. For detailed hindlimb kinematic analysis, mice from different groups were placed in the MotoRater (TSE Systems, (Zorner et al., 2010)), and all kinematic analysis was performed based on data collected by the MotoRater.

[2] = tested on: mice with staggered lesions; experiment: Cortical stimulation with EMG responses recorded in the TA muscle; format: in vivo, mouse; settings: injured mice, compared to controls; FIG. 5D-5F
Experimental: To test directly if the treated spinal cord could more efficiently relay descending inputs to the lumbar spinal cord, cortical stimulation was performed and recorded EMG responses in the TA muscle (FIG. 5D). […] Thus, KCC2 treatment facilitates the transmission of descending inputs from the brain to the lumbar spinal cord.
For epidural stimulation and EMG recording, a customized head plate was secured over the skull, and a monopolar stimulation electrode (SSM33A05, World Precision Instruments, Inc.) was positioned epidurally over the representative hindlimb area of left motor cortex. A train of electrical stimuli (0.2 ms biphasic pulse, 100 ms pulse train, 20 Hz, 0.5-1.5 mA) was generated by pulse generator and isolator (Master 9 and Iso-Flex, A.M.P.I.), and delivered during quadrupedal standing in fully awake condition. Testing was performed without and with electrochemical stimulations. Peak-to-peak amplitude and latency of evoked responses were computed from EMG recordings of the right TA muscle.

[3] = tested on: propriospinal and brain-derived descending axons; experiment: Axon regrowth tracing: retrograde HiRet-mCherry, anterograde AAV-ChR2, 5-HT immunohistochemistry; format: in vivo, mouse
Experimental: To test these possibilities, it was determined whether CLP290 increased the regrowth of spared propriospinal axons, and/or their connecting axons from the brain. To analyze neuronal projections to the hindlimb locomotor control center in each condition, a retrograde tracing pseudotyped lentiviral vector (HiRet) expressing mCherry (HiRet-mCherry) (Kato et al., 2011; Wang et al., 2017; Liu et al., 2017) was injected into the lumbar enlargement (L2-L4). At 2 weeks after injury, most retrogradely labeled neurons were found in the spinal cord segments between and around the lesions, with few above the lesion and none in the brain ([…]). […] Similarly, the sprouting of serotonergic axons detected by 5-HT immunohistochemistry was also not affected by CLP290 treatment (FIG. 9D-9F). Thus, it is unlikely that CLP290 acts by promoting the regrowth of brain-derived descending axons into the relay zone, or propriospinal axons projecting to the lumbar spinal cord.
For reticulospinal tracing experiments (procedure was described previously (Esposito et al., 2014)), AAV2/8-ChR2-YFP and AAV2/8-ChR2-mCherry were injected into the mouse right and left reticular formation in the brain stem respectively. For CST tracing experiments (procedure was described previously (Liu et al., 2010; Liu et al., 2017)), AAV2/8-ChR2-mCherry was injected to the mouse right sensorimotor cortex (all AAV titers were adjusted to 0.5-5×10^13 copies/ml for injection, produced by The Viral Core, Boston Children's Hospital). For lumbar level retrograde tracing, vectors of HiRet-mCherry (lenti-virus titers were adjusted to 1.6-2×10^12 copies/ml for injection) were constructed based on the HiRet-lenti backbone (Kinoshita et al., 2012). Injection procedure was described previously (Wang et al., 2017), in which HiRet-mCherry is injected into left or right lumbar spinal cord from segments 2-4.
Spinal cord transverse and horizontal sections were imaged with a confocal laser-scanning microscope (Zeiss 700 or Zeiss 710). To quantify and compare fluorescence intensity of: reticular spinal tract projections (RFP^+ and GFP^+), and corticospinal tract (CST) projections (GFP^+), at different transverse spinal cord segments sections (FIGS. 10A and 10C); as well as 5HT axonal staining (FIG. 10B). All images, used for analysis under multiple conditions, were taken using the same optical parameters to avoid saturation. Densitometry measurements were taken by using FIJI software, after being sub-thresholded to the background and normalized by area.
aTo quantify and compare the retrograde HiRet-marked cell body of spinal neurons in different treatments, all images were decomposed to individual channels and planes. They were aligned and quantified using custom-developed MATLAB codes. […]

## O=C1N=C(N2CCCCN2)S/C1=C\c1ccc(F)cc1OC(=O)N1CCCC1 [CLP290, [5-Fluoro-2-[(Z)-(2-hexahydropyridazin-1-yl-4-oxo-thiazol-5-ylidene)methyl]phenyl] pyrrolidine-1-carboxylate]
[1]; 9 weeks post staggered injury, FIG. 1F
  mice that recovered consistent hindpaw plantar placement and weight-bearing stepping: 80%
[1]; Vgat-Cre mice with AAV-FLEX-KCC2, CLP290 versus vehicle, FIG. 10E
  additional functional recovery (BMS) from accompanying CLP290 treatment: did not significantly enhance functional recovery at most time points
[1]; after withdrawal following 10-week treatment, FIG. 1G
  time BMS scores remained significantly higher than controls after stopping treatment: 1-2 weeks
[1]; daily i.p. treatment from 1 week after injury, BMS about 24 h after previous dose, FIG. 1E, 7A
  stepping ability / functional recovery (BMS), chronic compound treatment: induced sustained functional recovery
[1]; daily i.p. treatment started 1 week after injury, BMS about 24 h after previous dose, FIG. 1E
  time at which functional recovery (BMS) first appeared: 4-5 weeks
[1]; weeks after treatment, daily i.p. treatment, BMS about 24 h after previous dose, FIG. 1E
  time from which functional recovery (BMS) became significant: 7 weeks
[2]
  amplitude of evoked EMG signals in TA muscle: significantly increased
[3]; 5-HT immunohistochemistry, FIG. 9D-9F
  sprouting of serotonergic axons: not affected
[3]; HiRet-mCherry injected into L2-L4, 10 weeks after injury, FIGS. 8C and 8F
  number of retrogradely traced neurons in the spinal cord: did not affect these measures
[3]; anterograde tracing with AAV-ChR2-mCherry and AAV-ChR2-GFP, 2 and 10 weeks after injury, FIG. 9A-9C
  sprouting of descending brainstem reticulospinal axons: failed to reveal increased sprouting
[3]; anterograde tracing, 2 and 10 weeks after injury, FIG. 9G-9I
  sprouting of corticospinal axons: failed to reveal increased sprouting
